Measured values: patent EP4737473A1, “NOVEL COMPLEMENT INHIBITOR AND PREPARATION, USE AND PRODUCT THEREOF” (Liu, Xiaorong, priority 2023, dated 2025)
Positions of bridges follow the written chain, without caps; N, C: chain ends. Non-standard residues stand in square brackets, D forms with d. Residues, ends and D or L forms follow the SMILES beside them. ξ: configuration not given here. Bpa = N[C@@H](Cc1ccc(C(=O)c2ccccc2)cc1)C(=O)O; Trp(7-aza) = N[C@@H](Cc1c[nH]c2ncccc12)C(=O)O; Trp(1-Me) = Cn1cc(C[C@H](N)C(=O)O)c2ccccc21; ξTrp(5-F) = NC(Cc1c[nH]c2ccc(F)cc12)C(=O)O; 2Nal = N[C@@H](Cc1ccc2ccccc2c1)C(=O)O; Api = NC1(C(=O)O)CCNCC1; Abu = CC[C@H](N)C(=O)O; Aib = CC(C)(N)C(=O)O

Tests used:
[1] = biological target: T1, His-tag recombinant human C3 protein (Homo sapiens, UniProt P01024); assay: BLI affinity assay (Bio-Layer Interferometry, Ni-NTA biosensor, ForteBio Octet); assay type: binding; set-up: purchased Sino Biological Inc; details: for Kd: 60s association, 90s dissociation, PBS pH 8.0; for kon: association rate constant; for koff: dissociation rate constant, read-out: kdis
Source text: The BLI affinity assay was used to verify the effects of the cyclic peptides of the disclosure and the control product.
BLI refers to Bio-Layer Interferometry. The principle is: after visible light is emitted from the spectrometer, two reflected spectra are formed at the two interfaces of the optical film layer at the end of the sensor, and an interference spectrum is formed. Any change in film thickness caused by molecular binding can be reflected by the displacement value of the interference spectrum.
Subsequently, a 90s dissociation step was performed after the 60s association phase to obtain the Kd value by fitting the curve.
The stock solution was dissolved in 15% acetonitrile, and the working solution was serially diluted with PBS at pH 8.0.

[2] = system: classical pathway complement; assay: Classical pathway complement inhibition assay (ELISA, human plasma); assay type: biochemical; details: human plasma 1:40 in VBS, 15 minutes at room temperature
Procedure: The half-inhibitory concentration values of SEQ ID NO.1-6 were evaluated by the classical pathway complement inhibition assay. The association constant (Ka), dissociation constant (Kd), and equilibrium dissociation constant (KD) were determined by surface plasmon resonance (SPR) assay.
The complement inhibition assay can be performed with reference to the following steps: Evaluation was performed by an established enzyme-linked immunosorbent assay (ELISA). Under normal ambient temperature, 96-well plates were coated with 50 µL of 1% ovalbumin in PBS for 2 hours. […] After washing, complement activation (C3b/iC3b/C3d bound to immune complexes) was detected using HRP-conjugated goat α-human C3 antibody (1:1000; MP Biomedicals). The reaction was performed using HRP substrate (0.05% ABTS and 0.1% H2O2 dissolved in 0.1 M sodium citrate, pH 4.2), and the absorbance was read at 405 nm using a VICTOR multi-label plate reader (PerkinElmer, Waltham, MA). 100% complement activation was obtained in the absence of the C3 peptide inhibitor, and the absorbance data obtained at 405 nm were converted to the percentage of complement inhibition. […] Surface plasmon resonance (SPR) experiments were performed using a Biacore 3000 instrument (GE Healthcare, Piscataway Town, NJ), and the binding affinity and kinetic characteristics of the cyclic peptides were evaluated by SPR.

C3 protein = C3 protein (Homo sapiens, UniProt P01024); assay: MST affinity assay (microscale thermophoresis, Monolith NT.115); assay type: binding; details: polypeptide about 200 nM, 0.5×PBS, 15% ACN, maximum protein concentration 0.25 µM
[3] = biological target: C3 protein (MST affinity assay) (Homo sapiens (Human)) (UniProt P01024); assay: MST (Monolith NT.115), retest; fluorescently labeled peptide, C3 protein titrated
[4] = biological target: C3 protein (MST affinity assay) (Homo sapiens (Human)) (UniProt P01024); assay: MST (Monolith NT.115), fluorescently labeled peptide ~200 nM, C3 protein titrated from 0.25 uM
[5] = biological target: T1, His-tag recombinant human C3 protein; assay: BLI (ForteBio Octet), His-tag C3 on Ni-NTA biosensor, peptide in solution
Target sequence in this assay (P01024 23-1663 limits assumed): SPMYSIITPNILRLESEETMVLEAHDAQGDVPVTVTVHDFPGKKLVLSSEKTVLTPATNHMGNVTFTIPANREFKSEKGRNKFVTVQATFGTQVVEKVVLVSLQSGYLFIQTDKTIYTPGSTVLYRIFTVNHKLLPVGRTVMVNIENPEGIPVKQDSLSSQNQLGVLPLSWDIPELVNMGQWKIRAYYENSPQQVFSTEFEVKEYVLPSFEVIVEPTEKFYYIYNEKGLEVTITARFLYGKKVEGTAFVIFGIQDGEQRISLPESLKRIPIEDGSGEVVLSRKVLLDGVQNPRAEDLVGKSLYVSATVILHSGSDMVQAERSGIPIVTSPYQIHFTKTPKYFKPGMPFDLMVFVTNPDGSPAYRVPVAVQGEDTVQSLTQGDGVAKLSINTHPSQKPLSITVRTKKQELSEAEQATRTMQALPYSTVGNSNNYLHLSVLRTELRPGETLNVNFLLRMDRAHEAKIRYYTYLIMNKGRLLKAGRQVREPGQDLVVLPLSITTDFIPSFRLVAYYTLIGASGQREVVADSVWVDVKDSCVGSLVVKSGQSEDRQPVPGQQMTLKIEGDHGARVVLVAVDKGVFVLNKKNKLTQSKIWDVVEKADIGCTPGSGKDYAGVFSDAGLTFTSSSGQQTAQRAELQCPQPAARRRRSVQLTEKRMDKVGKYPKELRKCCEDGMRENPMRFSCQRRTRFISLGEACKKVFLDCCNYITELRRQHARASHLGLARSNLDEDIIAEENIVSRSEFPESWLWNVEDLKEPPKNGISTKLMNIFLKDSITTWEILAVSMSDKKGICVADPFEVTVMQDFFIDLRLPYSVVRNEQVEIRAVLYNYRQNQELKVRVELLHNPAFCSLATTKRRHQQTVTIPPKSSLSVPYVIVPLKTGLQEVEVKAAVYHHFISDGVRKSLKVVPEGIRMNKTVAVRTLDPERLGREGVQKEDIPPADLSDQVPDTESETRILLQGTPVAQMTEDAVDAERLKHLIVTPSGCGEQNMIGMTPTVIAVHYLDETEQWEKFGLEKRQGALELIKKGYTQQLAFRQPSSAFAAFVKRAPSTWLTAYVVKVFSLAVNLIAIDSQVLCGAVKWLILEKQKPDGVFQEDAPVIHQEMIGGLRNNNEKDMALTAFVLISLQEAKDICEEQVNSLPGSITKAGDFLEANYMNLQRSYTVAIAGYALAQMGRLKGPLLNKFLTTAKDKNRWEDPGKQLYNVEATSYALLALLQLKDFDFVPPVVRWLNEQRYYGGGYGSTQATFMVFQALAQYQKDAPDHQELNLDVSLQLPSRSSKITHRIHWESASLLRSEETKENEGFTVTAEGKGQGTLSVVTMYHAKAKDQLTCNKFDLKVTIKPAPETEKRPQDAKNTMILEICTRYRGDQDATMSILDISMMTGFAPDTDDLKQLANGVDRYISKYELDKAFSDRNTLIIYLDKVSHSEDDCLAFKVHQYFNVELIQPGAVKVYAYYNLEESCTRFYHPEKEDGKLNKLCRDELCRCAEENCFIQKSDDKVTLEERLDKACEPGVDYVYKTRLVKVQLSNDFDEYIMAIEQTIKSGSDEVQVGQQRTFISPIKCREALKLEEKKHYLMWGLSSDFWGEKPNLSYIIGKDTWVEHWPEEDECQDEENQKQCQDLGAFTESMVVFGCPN

[6] = biological target: C3 in human plasma (human) (UniProt P01024); assay: cell-based or functional assay
Sequence of C3 in human plasma (human) (P01024 23-1663): as the sequence (P01024 23-1663 limits assumed) above

Sequence of C3 protein (MST affinity assay) (Homo sapiens (Human)) (P01024 23-667 limits assumed, form in doubt, chain 1 of 2): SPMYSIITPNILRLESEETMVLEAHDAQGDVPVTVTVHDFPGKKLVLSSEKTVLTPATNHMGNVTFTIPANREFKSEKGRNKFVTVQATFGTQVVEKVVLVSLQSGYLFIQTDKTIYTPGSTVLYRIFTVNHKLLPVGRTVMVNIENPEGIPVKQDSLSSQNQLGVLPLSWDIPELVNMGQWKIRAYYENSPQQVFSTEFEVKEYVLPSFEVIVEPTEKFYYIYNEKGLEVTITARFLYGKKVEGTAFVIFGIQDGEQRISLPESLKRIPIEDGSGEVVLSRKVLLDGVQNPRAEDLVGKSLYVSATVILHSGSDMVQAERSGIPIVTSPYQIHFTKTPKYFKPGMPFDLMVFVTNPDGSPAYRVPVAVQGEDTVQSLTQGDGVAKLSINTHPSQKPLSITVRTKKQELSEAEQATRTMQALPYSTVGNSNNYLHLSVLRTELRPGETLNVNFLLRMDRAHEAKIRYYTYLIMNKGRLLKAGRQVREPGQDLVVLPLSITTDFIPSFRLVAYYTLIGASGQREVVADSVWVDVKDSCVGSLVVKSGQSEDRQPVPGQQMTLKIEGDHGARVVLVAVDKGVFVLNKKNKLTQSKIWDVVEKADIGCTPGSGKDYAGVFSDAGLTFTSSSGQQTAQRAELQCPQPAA
Sequence of C3 protein (MST affinity assay) (Homo sapiens (Human)) (P01024 672-1663 limits assumed, form in doubt, chain 2 of 2): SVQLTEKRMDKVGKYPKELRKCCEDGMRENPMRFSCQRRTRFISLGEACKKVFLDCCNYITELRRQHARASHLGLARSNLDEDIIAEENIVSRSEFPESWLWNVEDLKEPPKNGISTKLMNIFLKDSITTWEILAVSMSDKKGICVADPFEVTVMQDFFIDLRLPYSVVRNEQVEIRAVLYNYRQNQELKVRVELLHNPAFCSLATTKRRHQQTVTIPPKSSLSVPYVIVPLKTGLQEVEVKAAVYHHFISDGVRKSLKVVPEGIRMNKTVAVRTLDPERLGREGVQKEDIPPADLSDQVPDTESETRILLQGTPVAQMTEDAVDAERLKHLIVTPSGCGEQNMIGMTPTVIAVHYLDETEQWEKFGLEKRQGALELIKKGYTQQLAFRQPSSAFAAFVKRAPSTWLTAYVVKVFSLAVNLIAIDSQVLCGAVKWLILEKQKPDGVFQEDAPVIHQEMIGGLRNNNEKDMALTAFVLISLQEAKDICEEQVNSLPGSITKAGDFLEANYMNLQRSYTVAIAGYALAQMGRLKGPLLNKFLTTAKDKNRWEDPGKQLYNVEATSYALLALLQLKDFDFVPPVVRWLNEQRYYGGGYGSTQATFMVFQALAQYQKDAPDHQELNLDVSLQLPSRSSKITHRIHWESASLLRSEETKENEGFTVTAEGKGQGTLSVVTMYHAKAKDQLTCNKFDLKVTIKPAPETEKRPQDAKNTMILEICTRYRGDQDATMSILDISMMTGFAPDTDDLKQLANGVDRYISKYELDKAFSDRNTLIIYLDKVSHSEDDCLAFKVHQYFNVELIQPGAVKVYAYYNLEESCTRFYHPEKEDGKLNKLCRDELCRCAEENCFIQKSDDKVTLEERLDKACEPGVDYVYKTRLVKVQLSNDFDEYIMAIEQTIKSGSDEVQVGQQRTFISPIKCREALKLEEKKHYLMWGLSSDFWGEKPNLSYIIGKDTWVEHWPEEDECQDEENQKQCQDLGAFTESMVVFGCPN

Kd [1]	kon [1]	koff [1]	IC50 (µm), classical pathway complement inhibition assay (ELISA, C3b/iC3b/C3d deposition from human plasma) [6]	Molecule	other results
	112000 M⁻¹ s⁻¹	0.0393 s⁻¹		CC[C@@H]1NC(=O)[C@@H](NC(=O)[C@@H](NC(C)=O)[C@@H](C)CC)CSSC[C@@H](C(=O)N[C@H](C(N)=O)[C@@H](C)O)NC(=O)[C@H](CCCNC(=N)N)NC(=O)[C@H](Cc2c[nH]cn2)NC(=O)C2(CCNCC2)NC(=O)CNC(=O)C(Cc2c[nH]c3ccc(F)cc23)NC(=O)[C@H](CC(=O)O)NC(=O)[C@H](CCC(N)=O)NC(=O)[C@H](Cc2cn(C)c3ccccc23)NC1=O (some centres unmarked) [SEQ ID NO.4, Ac-IC-Abu-W(CH3)-QD-5F-Trp -G-Pip-HRCT-NH2(C-C)] (Ac-IC[Abu][Trp(1-Me)]QD[ξTrp(5-F)]G[Api]HRCT-NH2; disulfide 2-12)	IC50 [2]: 2260 nM
2260 nM	13100 M⁻¹ s⁻¹	0.0296 s⁻¹		CC[C@@H]1NC(=O)[C@@H](NC(=O)[C@@H](NC(C)=O)[C@@H](C)CC)CSSC[C@@H](C(=O)N[C@H](C(N)=O)[C@@H](C)O)NC(=O)[C@H](CCCNC(=N)N)NC(=O)[C@H](Cc2c[nH]cn2)NC(=O)C(C)(C)NC(=O)CNC(=O)C(Cc2c[nH]c3ccc(F)cc23)NC(=O)[C@H](CC(=O)O)NC(=O)[C@H](CCC(N)=O)NC(=O)[C@H](Cc2ccc3ccccc3c2)NC1=O (some centres unmarked) [SEQ ID NO.5, Ac-IC-Abu- 2Nal -QD-5F-Trp -G-Aib-HRCT-NH2(C-C)] (Ac-IC[Abu][2Nal]QD[ξTrp(5-F)]G[Aib]HRCT-NH2; disulfide 2-12)	
39900 nM	925 M⁻¹ s⁻¹	0.0369 s⁻¹		CC[C@H](C)[C@H](NC(C)=O)C(=O)N[C@H]1CSSC[C@@H](C(=O)N[C@H](C(N)=O)[C@@H](C)O)NC(=O)[C@H](CCCNC(=N)N)NC(=O)[C@H](Cc2c[nH]cn2)NC(=O)C(C)(C)NC(=O)CNC(=O)C(Cc2c[nH]c3ccc(F)cc23)NC(=O)[C@H](CC(=O)O)NC(=O)[C@H](CCC(N)=O)NC(=O)[C@H](Cc2ccc(C(=O)c3ccccc3)cc2)NC(=O)[C@H](Cc2ccc(O)cc2)NC1=O (stereo partly drawn) [SEQ ID NO.6, Ac-IC-Tyr-Bpa-QD-5F-Trp -G-Aib-HRCT-NH2(C-C)] (Ac-ICY[Bpa]QD[ξTrp(5-F)]G[Aib]HRCT-NH2; disulfide 2-12)	
			2.26 µM	SEQ ID NO.4: Ac-IC-Abu-W(CH3)-QD-5F-Trp-G-Pip-HRCT-NH2 (C-C) (peptide)	Kd [5]: 351 nM

Second part, the molecule before the results:

Molecule	Kd [1]	kon [1]	koff [1]	IC50 (µm), classical pathway complement inhibition assay (ELISA, C3b/iC3b/C3d deposition from human plasma) [6]	other results
CC[C@H](C)[C@H](NC(C)=O)C(=O)N[C@H]1CSSC[C@@H](C(=O)N[C@H](C(N)=O)[C@@H](C)O)NC(=O)[C@H](CCCNC(=N)N)NC(=O)[C@H](Cc2c[nH]cn2)NC(=O)C(C)(C)NC(=O)CNC(=O)[C@H](Cc2ccc3ccccc3c2)NC(=O)[C@H](CC(=O)O)NC(=O)[C@H](CCC(N)=O)NC(=O)[C@H](Cc2cn(C)c3ccccc23)NC(=O)[C@H](C(C)C)NC1=O [SEQ ID NO.1, Ac-ICV-W(CH3)-QD-2Nal -G-Aib-HRCT-NH2(C-C)] (Ac-ICV[Trp(1-Me)]QD[2Nal]G[Aib]HRCT-NH2; disulfide 2-12)	3190 nM	15400 M⁻¹ s⁻¹	0.0492 s⁻¹		
CC[C@H](C)[C@H](NC(C)=O)C(=O)N[C@H]1CSSC[C@@H](C(=O)N[C@H](C(N)=O)[C@@H](C)O)NC(=O)[C@H](CCCNC(=N)N)NC(=O)[C@H](Cc2c[nH]cn2)NC(=O)C(C)(C)NC(=O)CNC(=O)C(Cc2c[nH]c3ccc(F)cc23)NC(=O)[C@H](CC(=O)O)NC(=O)[C@H](CCC(N)=O)NC(=O)[C@H](Cc2c[nH]c3ncccc23)NC(=O)[C@H](C(C)C)NC1=O (some centres unmarked) [SEQ ID NO.2, Ac-ICV-AzaTrp-QD-5F-Trp-G-Aib-HRCT-NH2(C-C)] (Ac-ICV[Trp(7-aza)]QD[ξTrp(5-F)]G[Aib]HRCT-NH2; disulfide 2-12)		393000 M⁻¹ s⁻¹	0.0179 s⁻¹		IC50 [2]: 920 nM
CC[C@H](C)[C@H](NC(C)=O)C(=O)N[C@H]1CSSC[C@@H](C(=O)N[C@H](C(N)=O)[C@@H](C)O)NC(=O)[C@H](CCCNC(=N)N)NC(=O)[C@H](Cc2c[nH]cn2)NC(=O)C(C)(C)NC(=O)CNC(=O)C(Cc2c[nH]c3ccc(F)cc23)NC(=O)[C@H](CC(=O)O)NC(=O)[C@H](CCC(N)=O)NC(=O)[C@H](Cc2ccc3ccccc3c2)NC(=O)[C@H](C(C)C)NC1=O (some centres unmarked) [SEQ ID NO.3, Ac-ICV-2Nal-QD-5F-Trp-G-Aib-HRCT-NH2(C-C)] (Ac-ICV[2Nal]QD[ξTrp(5-F)]G[Aib]HRCT-NH2; disulfide 2-12)	45.4 nM	387000 M⁻¹ s⁻¹	0.0176 s⁻¹		Kd (C3 protein): 35.4 nM
SEQ ID NO.2: Ac-ICV-AzaTrp-QD-5F-Trp-G-Aib-HRCT-NH2 (C-C) (peptide)				0.92 µM	Kd [3]: 24.6 nM; Kd [4]: 114 nM; Kd [5]: 45.4 nM
SEQ ID NO.3: Ac-ICV-2Nal-QD-5F-Trp-G-Aib-HRCT-NH2 (C-C) (peptide)				1.46 µM	
